“Also recorded” adds a separate entry of the source. Where two headings read alike, the source gives them in different places.
Key:
[1] = biological target: T1, human T-type calcium channels hCav3.2 (Homo sapiens, UniProt O95180); experiment: whole-cell patch-clamp, calcium peak currents in stably transfected HEK 293 cells; assay type: cell-based; settings: for Relative current amplitude (%): hCav3.2 in HEK 293 cells; for IC50: two site binding model
T1 construct: expressed in transfected cells; host or cells: HEK 293 cells (European Collection of Animal Cell Culture)
T1 sequence (O95180 whole entry): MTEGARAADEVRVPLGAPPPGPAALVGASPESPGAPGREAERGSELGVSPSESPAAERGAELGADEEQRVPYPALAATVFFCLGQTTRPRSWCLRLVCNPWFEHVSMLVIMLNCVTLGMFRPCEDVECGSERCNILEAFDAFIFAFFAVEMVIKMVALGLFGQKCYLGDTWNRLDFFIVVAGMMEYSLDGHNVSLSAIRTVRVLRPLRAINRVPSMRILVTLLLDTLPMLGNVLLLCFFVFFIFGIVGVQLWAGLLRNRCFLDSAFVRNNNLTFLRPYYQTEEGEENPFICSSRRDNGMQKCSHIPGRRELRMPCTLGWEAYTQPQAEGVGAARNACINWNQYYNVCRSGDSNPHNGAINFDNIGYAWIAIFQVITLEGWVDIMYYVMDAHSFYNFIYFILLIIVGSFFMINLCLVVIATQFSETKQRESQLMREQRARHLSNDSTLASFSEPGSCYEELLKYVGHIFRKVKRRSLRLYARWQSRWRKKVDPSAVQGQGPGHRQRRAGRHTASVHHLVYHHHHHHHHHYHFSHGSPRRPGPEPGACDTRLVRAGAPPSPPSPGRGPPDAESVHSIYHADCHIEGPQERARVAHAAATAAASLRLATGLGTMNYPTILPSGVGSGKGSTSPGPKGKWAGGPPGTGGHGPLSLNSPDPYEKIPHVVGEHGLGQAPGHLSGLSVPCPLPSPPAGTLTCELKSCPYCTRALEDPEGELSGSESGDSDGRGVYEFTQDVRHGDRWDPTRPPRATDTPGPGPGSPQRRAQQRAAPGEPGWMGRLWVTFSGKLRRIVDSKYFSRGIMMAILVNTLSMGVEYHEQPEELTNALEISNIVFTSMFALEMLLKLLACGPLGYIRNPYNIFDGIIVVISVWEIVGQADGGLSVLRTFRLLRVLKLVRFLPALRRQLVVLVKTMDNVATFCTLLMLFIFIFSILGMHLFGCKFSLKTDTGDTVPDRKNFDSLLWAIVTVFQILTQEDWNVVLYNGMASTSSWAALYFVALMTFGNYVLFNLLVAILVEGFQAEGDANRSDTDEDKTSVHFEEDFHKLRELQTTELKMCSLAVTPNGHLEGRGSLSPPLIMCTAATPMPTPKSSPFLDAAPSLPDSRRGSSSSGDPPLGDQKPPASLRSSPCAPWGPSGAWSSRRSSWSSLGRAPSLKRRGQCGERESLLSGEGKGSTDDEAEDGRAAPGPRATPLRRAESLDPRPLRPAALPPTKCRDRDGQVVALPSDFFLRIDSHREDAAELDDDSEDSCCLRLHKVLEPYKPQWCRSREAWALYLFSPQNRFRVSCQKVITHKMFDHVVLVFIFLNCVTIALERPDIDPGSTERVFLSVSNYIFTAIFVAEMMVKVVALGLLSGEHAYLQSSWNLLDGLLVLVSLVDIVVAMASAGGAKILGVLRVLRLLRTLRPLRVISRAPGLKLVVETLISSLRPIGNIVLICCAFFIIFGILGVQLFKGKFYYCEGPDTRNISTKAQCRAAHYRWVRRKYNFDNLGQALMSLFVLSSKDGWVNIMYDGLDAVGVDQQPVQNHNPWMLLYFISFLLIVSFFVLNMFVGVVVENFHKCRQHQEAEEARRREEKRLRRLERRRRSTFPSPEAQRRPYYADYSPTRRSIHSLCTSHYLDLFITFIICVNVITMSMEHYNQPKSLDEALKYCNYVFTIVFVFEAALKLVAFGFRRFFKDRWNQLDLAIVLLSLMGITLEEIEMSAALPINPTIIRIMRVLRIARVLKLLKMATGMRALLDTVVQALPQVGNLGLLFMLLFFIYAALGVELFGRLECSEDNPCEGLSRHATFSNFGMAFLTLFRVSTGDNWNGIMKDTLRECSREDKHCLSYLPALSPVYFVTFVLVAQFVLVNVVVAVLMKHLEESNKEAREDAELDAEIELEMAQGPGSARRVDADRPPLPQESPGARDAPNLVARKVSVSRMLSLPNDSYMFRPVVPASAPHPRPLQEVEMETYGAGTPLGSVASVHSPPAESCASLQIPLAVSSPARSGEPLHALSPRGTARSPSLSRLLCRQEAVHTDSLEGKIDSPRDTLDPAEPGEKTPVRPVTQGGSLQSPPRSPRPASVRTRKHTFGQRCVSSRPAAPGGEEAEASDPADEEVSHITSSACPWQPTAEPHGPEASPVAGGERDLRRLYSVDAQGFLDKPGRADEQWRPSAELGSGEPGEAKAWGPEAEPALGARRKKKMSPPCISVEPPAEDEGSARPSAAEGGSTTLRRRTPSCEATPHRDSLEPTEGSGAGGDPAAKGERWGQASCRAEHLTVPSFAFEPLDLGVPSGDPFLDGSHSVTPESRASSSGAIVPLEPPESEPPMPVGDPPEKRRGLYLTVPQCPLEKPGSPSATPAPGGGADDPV
Procedure: A study was carried out to determine the effect of eslicarbazepine.
Cells were stably transfected with hCav3.2 cDNA.
Calcium inward currents were measured upon depolarization of the cell membrane to −25 mV for 50 ms from a holding potential of −80 mV. This voltage protocol was run at intervals of 10 s until stabilization of evoked hCav3.2 currents. […] Vehicle was either bath solution or 0.2% DMSO.
Analysis of variance (ANOVA) with post test multisample comparison (Dunnett) was conducted with GraphPad Prism 4 Software. IC50 were calculated with the equation: […]

[2] = tested on: α1β2γ2, α2β2γ2, α3β2γ2 or α5β2γ2 GABA-receptors; experiment: overall effect on sub-maximal GABA currents (summary of Example 1); assay type: cell-based; settings: Ltk cells, all four receptor subtypes
Procedure: (§1) Carbamazepine (CBZ) aggravates absence seizures in ‘generalized absence epilepsy rats from. Strasbourg’. One putative mechanism for the aggravation is through its reported potentiation of GABAA currents. A study was carried out to determine the effect of eslicarbazepine, R-licarbazepine and carbamazepine on sub-maximal GABA currents in Ltk cells stably expressing α1β2γ2, α2β2γ2, α3β2γ2 or α5β2γ2 GABA-receptors. The whole-cell patch-clamp technique was used to investigate the effects of the test compounds on GABAA receptors.
Used Ltk cells were stably transfected with recombinant GABAA cDNAs: α1β2γ2, α2β2γ2, α3β2γ2 or α5β2γ2 (B'SYS GmbH, Switzerland). Cells were maintained in a humidified atmosphere (95% relative humidity) with 5% CO2 and were grown in D-MEM/F-12 (1×, liquid, with GlutaMax 1) supplemented with 9% foetal bovine serum and 0.9% Penicillin/Streptomycin solution (Gibco BRL). For the electrophysiological experiments cells were cultivated, at a density that enabled single cells to be measured, in medium without antibiotics or antimycotics. Cells were tested 24-48 hours following induction of transgene expression with dexamethasone.
Cells were continuously perfused with bath solution (NaCl 137 mM, KCl 4 mM, CaCl2 1.8 mM, MgCl2 1 mM, D-Glucose 10 mM HEPES 10 mM, pH 7.4). […] GABA inward-currents were measured upon application of 1 or 2 μM GABA to patch-clamped cells (at an EC5). […]

[3] = biological target: T2, α2β2γ2 GABA receptors (Homo sapiens, UniProt P18507+P47869+P47870); experiment: whole-cell patch-clamp, sub-maximal GABA inward currents in stably transfected Ltk cells; assay type: cell-based; settings: Table 1
T2 construct: host or cells: Ltk cells, expression induced with dexamethasone
T2 sequence (P47869 29-451): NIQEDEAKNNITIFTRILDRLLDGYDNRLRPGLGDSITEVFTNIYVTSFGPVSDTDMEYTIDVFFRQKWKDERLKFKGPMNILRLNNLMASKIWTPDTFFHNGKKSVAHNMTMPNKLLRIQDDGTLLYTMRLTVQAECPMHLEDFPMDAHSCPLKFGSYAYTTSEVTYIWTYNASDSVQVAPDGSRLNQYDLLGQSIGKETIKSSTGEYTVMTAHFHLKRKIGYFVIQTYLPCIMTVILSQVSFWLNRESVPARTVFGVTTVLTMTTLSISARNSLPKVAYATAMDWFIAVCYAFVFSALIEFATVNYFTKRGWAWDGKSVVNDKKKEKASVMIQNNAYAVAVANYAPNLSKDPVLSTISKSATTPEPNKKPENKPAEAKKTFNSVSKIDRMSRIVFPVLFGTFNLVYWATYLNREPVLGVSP
T2 sequence (P47870 25-512 limits assumed): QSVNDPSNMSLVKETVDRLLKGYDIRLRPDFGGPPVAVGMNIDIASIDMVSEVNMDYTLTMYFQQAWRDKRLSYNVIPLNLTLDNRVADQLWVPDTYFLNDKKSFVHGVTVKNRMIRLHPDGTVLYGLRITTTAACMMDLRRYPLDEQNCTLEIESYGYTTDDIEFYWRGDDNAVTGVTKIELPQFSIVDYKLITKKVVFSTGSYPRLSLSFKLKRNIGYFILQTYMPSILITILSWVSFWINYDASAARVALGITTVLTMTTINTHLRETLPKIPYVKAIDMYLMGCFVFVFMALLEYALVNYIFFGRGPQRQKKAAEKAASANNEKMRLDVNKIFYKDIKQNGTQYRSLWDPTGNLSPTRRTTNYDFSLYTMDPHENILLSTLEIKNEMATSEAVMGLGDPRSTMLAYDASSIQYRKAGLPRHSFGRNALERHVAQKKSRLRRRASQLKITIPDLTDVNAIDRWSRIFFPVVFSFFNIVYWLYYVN
T2 sequence (P18507 40-475): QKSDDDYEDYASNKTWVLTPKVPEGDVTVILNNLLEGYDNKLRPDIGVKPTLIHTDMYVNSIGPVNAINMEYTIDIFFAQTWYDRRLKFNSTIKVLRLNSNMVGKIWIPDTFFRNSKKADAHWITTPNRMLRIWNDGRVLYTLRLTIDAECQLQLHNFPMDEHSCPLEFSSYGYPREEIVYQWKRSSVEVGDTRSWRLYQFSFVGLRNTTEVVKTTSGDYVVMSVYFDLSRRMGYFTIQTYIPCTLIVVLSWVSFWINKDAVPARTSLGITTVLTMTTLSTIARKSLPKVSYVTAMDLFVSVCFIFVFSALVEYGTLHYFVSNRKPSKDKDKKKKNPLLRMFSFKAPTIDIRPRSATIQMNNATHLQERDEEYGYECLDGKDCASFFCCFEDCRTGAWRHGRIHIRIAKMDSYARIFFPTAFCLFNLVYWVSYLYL
Procedure: as §1
(§2) Used Ltk cells were stably transfected with recombinant GABAA cDNAs: α1β2γ2, α2β2γ2, α3β2γ2 or α5β2γ2 (B'SYS GmbH, Switzerland). […] For the electrophysiological experiments cells were cultivated, at a density that enabled single cells to be measured, in medium without antibiotics or antimycotics. Cells were tested 24-48 hours following induction of transgene expression with dexamethasone.
(§3) The whole-cell patch clamp recordings from transfected Ltk cells (voltage-clamped at a holding potential of −80 mV) were made using a EPC-7, HEKA Electronics amplifier. GABA inward-currents were measured upon application of 1 or 2 μM GABA to patch-clamped cells (at an EC5).
(§4) Analysis of Variance (ANOVA) with post test multisample comparison (Dunnett) was conducted with GraphPad Prism 4 Software.

[4] = biological target: T3, α3β2γ2 GABA receptors (Homo sapiens, UniProt P18507+P34903+P47870); experiment: as above; assay type: cell-based; settings: Table 1
T3 construct: host or cells: Ltk cells, expression induced with dexamethasone
T3 sequence (P34903 29-492): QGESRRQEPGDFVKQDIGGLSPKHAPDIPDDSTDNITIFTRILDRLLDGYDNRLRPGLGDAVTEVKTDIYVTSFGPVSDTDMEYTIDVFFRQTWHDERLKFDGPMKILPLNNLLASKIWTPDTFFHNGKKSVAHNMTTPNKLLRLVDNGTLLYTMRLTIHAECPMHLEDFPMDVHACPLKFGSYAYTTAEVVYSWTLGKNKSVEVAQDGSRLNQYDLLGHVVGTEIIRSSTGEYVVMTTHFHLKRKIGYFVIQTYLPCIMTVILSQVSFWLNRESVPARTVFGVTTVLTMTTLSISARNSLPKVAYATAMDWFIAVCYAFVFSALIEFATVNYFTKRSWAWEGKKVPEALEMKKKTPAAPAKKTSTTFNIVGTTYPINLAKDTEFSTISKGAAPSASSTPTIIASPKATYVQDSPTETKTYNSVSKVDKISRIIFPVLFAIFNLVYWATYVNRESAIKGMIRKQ
T3 sequence (P47870 25-512 limits assumed): as the sequence (P47870 25-512 limits assumed) above
T3 sequence (P18507 40-475): as the sequence (P18507 40-475) above
Procedure: as §1, §2, §3, §4

[5] = biological target: T4, α1β2γ2 GABA receptors (Homo sapiens, UniProt P14867+P18507+P47870); experiment: as above; assay type: cell-based; settings: Table 1
T4 construct: host or cells: Ltk cells, expression induced with dexamethasone
Procedure: as §1, §2, §3, §4

[6] = biological target: T5, α5β2γ2 GABA receptors (Homo sapiens, UniProt P18507+P31644+P47870); experiment: as above; assay type: cell-based; settings: Table 1
T5 construct: host or cells: Ltk cells, expression induced with dexamethasone
T5 sequence (P31644 32-462): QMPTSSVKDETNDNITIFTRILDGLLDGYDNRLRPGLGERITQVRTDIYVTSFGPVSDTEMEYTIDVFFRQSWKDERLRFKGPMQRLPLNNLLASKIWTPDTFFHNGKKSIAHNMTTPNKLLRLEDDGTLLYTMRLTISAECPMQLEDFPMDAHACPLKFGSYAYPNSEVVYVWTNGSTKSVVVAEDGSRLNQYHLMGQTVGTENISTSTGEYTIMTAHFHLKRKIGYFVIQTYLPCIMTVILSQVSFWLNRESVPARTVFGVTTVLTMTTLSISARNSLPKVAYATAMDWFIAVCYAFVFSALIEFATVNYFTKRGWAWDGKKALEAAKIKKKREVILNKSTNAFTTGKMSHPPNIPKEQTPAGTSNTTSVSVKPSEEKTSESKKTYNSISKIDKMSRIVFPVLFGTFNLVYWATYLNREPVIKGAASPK
T5 sequence (P47870 25-512 limits assumed): as the sequence (P47870 25-512 limits assumed) above
T5 sequence (P18507 40-475): as the sequence (P18507 40-475) above
Procedure: as §1, §2, §3, §4

[7] = tested on: absence seizure; experiment: mouse absence seizure models (γ-butyrolactone induced, SSADH null, stargazer, C3H/He); assay type: in vivo; settings: mice models (a)-(d)
[8] = tested on: primary generalised tonic clonic seizure (PGTCS); experiment: randomised double-blind placebo controlled trial of adjunctive treatment in PGTCS; assay type: in vivo; settings: human patients, adjunct or monotherapy
From the text: Clinical trial study: A randomised double-blind, placebo controlled, trial assesses the efficacy and safety of adjunctive eslicarbazepine acetate in primary generalised tonic clonic seizure (PGTCS) in human patients in accordance with established methods. Methods: Men and women are selected for trial according to standard inclusion criteria in the field including the following: • Subject is male or female and aged 6-65 years. • Subject has ≧3 PGTCS over the two months before screening and during the eight weeks Baseline Period with at least one seizure in each one month period. […] Trial endpoints assessed clinical criteria are as follows: • time to withdrawal after randomisation; • time to first, second, or other seizure after randomisation (time to first seizure after randomisation allows determination of the proportion of patients at different time points who remain seizure free); • time to achieving remission (e.g. at six months, one year, or two years); • change in seizure severity; • change in seizure frequency; • percentage response to treatment (response defined as a 50% or greater reduction in seizure frequency); • change in seizure-free interval; • change in seizure duration; • change in seizure pattern; • change in functional capacity; and • patient-related quality of life.

[9] = 50 μM with GABA at EC5, Ltk cells
[10] = 100 μM with GABA at EC5, Ltk cells
[11] = 250 μM with GABA at EC5, Ltk cells
[12] = 500 μM with GABA at EC5, Ltk cells

NC(=O)N1c2ccccc2C[C@H](O)c2ccccc21 [Eslicarbazepine, (S)-10-hydroxy-10,11-dihydro-5H-dibenz[b,f]azepine-5-carboxamide]
effect on hCav3.2 calcium peak currents (in words) [1]: dose dependently inhibited; also recorded: effectively inhibits high and low affinity hCav3.2 inward currents | Relative current amplitude (%) ([1]; 0.3 μM): 86.99 ± 1.56 % | Relative current amplitude (%) ([1]; 1 μM): 81.61 ± 1.31 % | Relative current amplitude (%) ([1]; 3 μM): 76.21 ± 1.61 % | Relative current amplitude (%) ([1]; 10 μM): 71.22 ± 2.40 % | Relative current amplitude (%) ([1]; 30 μM): 73.04 ± 1.64 % | Relative current amplitude (%) ([1]; 50 μM): 61.44 ± 4.96 % | Relative current amplitude (%) ([1]; 100 μM): 54.68 ± 6.35 % | Relative current amplitude (%) ([1]; 250 μM): 46.92 ± 6.64 % | Relative current amplitude (%) ([1]; 500 μM): 51.83 ± 4.77 % | Relative current amplitude (%) ([1]; 1000 μM): 45.48 ± 4.94 % | IC50 ([1]; high affinity fit, read-out: hCav3.2 IC50 (μM) High affinity): 0.43 µM | IC50 ([1]; low affinity fit, read-out: hCav3.2 IC50 (μM) Low affinity): 62.6 µM | effects upon sub-maximal GABA currents (in words) [2]: devoid of effects | Current stimulation (%) α2β2γ2 [3, 9]: 91.58 ± 2.69% | Current stimulation (%) α2β2γ2 [3, 10]: 97.04 ± 2.65% | Current stimulation (%) α2β2γ2 [3, 11]: 88.56 ± 3.24 % | Current stimulation (%) α2β2γ2 [3, 12]: 89.80 ± 4.01% | Current stimulation (%) α3β2γ2 [4, 9]: 95.61 ± 4.75% | Current stimulation (%) α3β2γ2 [4, 10]: 97.93 ± 4.22% | Current stimulation (%) α3β2γ2 [4, 11]: 96.44 ± 2.16% | Current stimulation (%) α3β2γ2 [4, 12]: 91.63 ± 5.56% | Current stimulation (%) α1β2γ2 [5, 9]: 103.3 ± 1.96% | Current stimulation (%) α1β2γ2 [5, 10]: 95.92 ± 0.83% | Current stimulation (%) α1β2γ2 [5, 11]: 97.82 ± 1.13% | Current stimulation (%) α1β2γ2 [5, 12]: 99.39 ± 0.80% | Current stimulation (%) α5β2γ2 [6, 9]: 95.18 ± 2.18% | Current stimulation (%) α5β2γ2 [6, 10]: 93.89 ± 0.60% | Current stimulation (%) α5β2γ2 [6, 11]: 93.52 ± 1.75% | Current stimulation (%) α5β2γ2 [6, 12]: 89.65 ± 3.44% | controlling seizures in mouse absence seizure models [7]: effective in controlling seizures

CC(=O)O[C@H]1Cc2ccccc2N(C(N)=O)c2ccccc21 [eslicarbazepine acetate, (S)-10-acetoxy-10,11-dihydro-5H-dibenz[b,f]azepine-5-carboxamide]
clinical effects in patients suffering from or susceptible to PGTCS [8]: improved clinical effects | controlling seizures in mouse absence seizure models [7]: effective in controlling seizures
